Patent US9169315B2, “Heparin cofactor II fragments with anti-inflammatory and anti-coagulant activity” (XIMMUNE AB, priority 2009, dated 2015)
No end group written: not given here.

Tested on: P. aeruginosa, E. coli, S. pyogenes, S. aureus, C. albicans
Assay: Antibacterial effects in human blood infected by bacteria
Assay type: cell-based
Conditions: 50% citrate blood
Procedure: (A) Antibacterial effects of NLF20 in presence of the indicated bacteria in human blood (made 50% in PBS) are presented. The indicated microbes (2×10^8 cfu/ml) were added to 50% citrate blood, followed by addition of peptide at 30, 60 or 120 μM. The number of cfu was determined after an incubation period of 1 h. (B) In an identical setup, hemolysis effects were studied. The bacteria were added to 50% citrate blood, followed by addition of peptide. Hemolysis was assessed after 1 hour.
E. coli ATCC 25922, P. aeruginosa 15159, or S. aureus ATCC 29213 bacteria were grown to mid-logarithmic phase in Todd-Hewitt (TH) medium (Becton and Dickinson, Maryland, USA). The microorganisms were then washed and diluted in 10 mM Tris, pH 7.4 containing 5 mM glucose. Following this, bacteria (50 μl; 2×10^6 cfu/ml) were incubated, at 37° C. for 2 hours, with NLF20 or LL-37 (at 0.03, 0.06, 0.3, 0.6, 3, 6, 30, 60 μM) in 10 mM Tris, 0.15 M NaCl, with or without 20% human citrate-plasma. […] To quantify the bactericidal activity, serial dilutions of the incubation mixtures were plated on TH agar, followed by incubation at 37° C. overnight and the number of colony-forming units was determined. […] Significance was determined using the statistical software SigmaStat (SPSS Inc., Chicago, Ill., USA).

NLFRKLTHRLFRRNFGYTLR [NLF20]
Antibacterial effect in infected human blood (P. aeruginosa, E. coli, S. pyogenes, peptide dose 120 μM, 1 h): almost complete eradication of P. aeruginosa, E. coli, as well as S. pyogenes
Antibacterial/antifungal effect in infected human blood (S. aureus and C. albicans): not active
